In patent publication US9566312B2, “Cyclic peptides and use as medicines” (priority 2012, dated 2017):
Read-outs that look alike come from different tables or passages of the source. Starred links: 1 amine or outer side, 2 acyl side, 3 side chain; linkers in the order of their positions; H or OH if unused. Non-standard residues stand in square brackets, D forms with d. Residues, ends and D or L forms follow the SMILES beside them. X78 = CC(C)N1CCN(CCOC[C@@H](C)[C@@H](C(=O)[*:2])N(C)[*:1])CC1; X49 = C[C@H](CCC(=O)N1CCN(C)CC1)[C@@H](C(=O)[*:2])N(C)[*:1]; X62 = COCCN1CCN(CCC[C@@H](C)[C@@H](C(=O)[*:2])N(C)[*:1])CC1; X35 = C[C@H](CN1CCC2(CC1)OCCO2)[C@@H](C(=O)[*:2])N(C)[*:1]; X46 = C[C@H](CN1CC2CCC(C1)O2)[C@@H](C(=O)[*:2])N(C)[*:1]; X53 = C[C@H](CN(C)Cc1cccnc1)[C@@H](C(=O)[*:2])N(C)[*:1]; X30 = C[C@H](CN1CCCOCC1)[C@@H](C(=O)[*:2])N(C)[*:1]; X65 = C[C@H](CCN1CCCCC1)[C@@H](C(=O)[*:2])N(C)[*:1]; MeBmt = C/C=C/C[C@@H](C)[C@@H](O)[C@H](NC)C(=O)O; NMeL = CN[C@@H](CC(C)C)C(=O)O; NMeV = CN[C@H](C(=O)O)C(C)C; dNMeA = CN[C@H](C)C(=O)O; Abu = CC[C@H](N)C(=O)O

Tests used:
CypF = CypF (Homo sapiens (Human), UniProt P30405); test: Inhibitor binding to cyclophilin proteins by SPR, CypF; settings: 1:1 binding model
Sequence of CypF (P30405 30-207): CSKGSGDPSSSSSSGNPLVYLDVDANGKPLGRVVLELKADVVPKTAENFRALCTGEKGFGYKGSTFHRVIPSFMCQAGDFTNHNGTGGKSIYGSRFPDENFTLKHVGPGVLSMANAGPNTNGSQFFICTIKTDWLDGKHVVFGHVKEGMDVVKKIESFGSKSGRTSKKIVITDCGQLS
Summary of the method: (§1)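 SPR, single-cycle kinetics. Avi-tagged, mono-biotinylated protein on Biotin CAPture chip; running buffer 10 mM HEPES pH 7.4, 150 mM NaCl, 0.05% P20, 3% DMSO. 1 min contacts at 50 μL/min, 10 min dissociation. kon/koff/KD from 1:1 fit.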

cyclophilin A (CypA) = cyclophilin A (CypA) (Homo sapiens (Human), UniProt P62937); test: Inhibitor binding to cyclophilin proteins by SPR, CypA; parameters: unit not given here; settings: 1:1 binding model;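 further: Single-cycle kinetics on a Biacore T200, compound injected at several concentrations for 1 min each at 50 µL/min, then 10 min dissociation, in HEPES pH 7.4 buffer with 3% DMSO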
Sequence of cyclophilin A (CypA) (P62937 whole entry): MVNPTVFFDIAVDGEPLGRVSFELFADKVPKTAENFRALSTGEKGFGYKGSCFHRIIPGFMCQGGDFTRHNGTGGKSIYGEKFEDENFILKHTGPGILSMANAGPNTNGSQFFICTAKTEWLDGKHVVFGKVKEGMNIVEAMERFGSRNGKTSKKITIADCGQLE

cyclophilin B (CypB) = cyclophilin B (CypB) (Homo sapiens (Human), UniProt P23284); test: Inhibitor binding to cyclophilin proteins by SPR, CypB; parameters: unit not given here; settings: 1:1 binding model
Sequence of cyclophilin B (CypB) (P23284 34-216): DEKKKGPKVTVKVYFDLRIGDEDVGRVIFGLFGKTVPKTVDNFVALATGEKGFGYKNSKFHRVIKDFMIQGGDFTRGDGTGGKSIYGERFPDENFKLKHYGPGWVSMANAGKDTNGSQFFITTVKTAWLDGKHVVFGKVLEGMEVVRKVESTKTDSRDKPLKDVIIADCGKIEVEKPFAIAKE
Summary of the method: as §1

[1] = biological target: organic anion transporting polypeptide 1B1 (OATP1B1) (Homo sapiens (Human), UniProt Q9Y6L6); test: OATP assay in CHO-OATP1B1 cells;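 further: inhibition of probe substrate uptake into the cells, ten minutes exposure, accumulated substrate read by fluorescence once cells were lysed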
Sequence of organic anion transporting polypeptide 1B1 (OATP1B1) (Q9Y6L6 whole entry): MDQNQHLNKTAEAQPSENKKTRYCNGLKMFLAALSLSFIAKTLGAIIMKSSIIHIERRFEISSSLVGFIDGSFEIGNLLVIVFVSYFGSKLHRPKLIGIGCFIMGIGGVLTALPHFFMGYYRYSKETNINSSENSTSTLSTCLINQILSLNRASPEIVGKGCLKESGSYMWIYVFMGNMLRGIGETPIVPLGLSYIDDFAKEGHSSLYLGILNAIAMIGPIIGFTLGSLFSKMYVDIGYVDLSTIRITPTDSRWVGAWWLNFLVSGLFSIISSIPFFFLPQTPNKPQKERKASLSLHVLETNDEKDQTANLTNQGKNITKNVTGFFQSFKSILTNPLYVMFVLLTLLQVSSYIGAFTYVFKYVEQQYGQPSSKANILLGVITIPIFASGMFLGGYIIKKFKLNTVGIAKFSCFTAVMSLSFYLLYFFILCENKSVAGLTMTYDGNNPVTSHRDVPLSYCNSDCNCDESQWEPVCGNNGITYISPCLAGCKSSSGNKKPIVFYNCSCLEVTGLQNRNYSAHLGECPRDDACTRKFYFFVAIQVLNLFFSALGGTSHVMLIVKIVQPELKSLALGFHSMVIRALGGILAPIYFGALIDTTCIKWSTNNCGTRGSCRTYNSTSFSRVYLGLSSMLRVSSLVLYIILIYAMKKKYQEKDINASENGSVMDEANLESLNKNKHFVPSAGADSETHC

[2] = tested on: peripheral blood mononuclear cells (PBMC); test: Anti-proliferative or immunosuppressive activity, BrdU incorporation in PHA-stimulated PBMC; assay type: cell-based; settings: PHA 3 μg/ml, 60 hour compound treatment; read-out: EMV PBMC IC50
Summary of the method: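 Fresh PBMCs from two donors, 30,000 per well in X-VIVO 15 medium, stimulated with 3 μg/ml PHA to drive T-cell proliferation. Proliferation measured as BrdU incorporation into DNA by BrdU ELISA.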

[3] = tested on: genotype 1b subgenomic HCV replicon in Huh7.5 cells; assay type: cell-based, hepatitis C virus; settings: read-out: RPLN-1b IC50
Summary of the method: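 Huh7.5 cells carrying genotype 1b subgenomic HCV replicon with renilla luciferase-neomycin reporter, in phenol red-free DMEM without G418. Luciferase measured after 72 h compound exposure relative to DMSO-treated cells; cytotoxicity (CC50) by Cell Titer-Glo.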

[4] = genotype 1b replicon, 72 h incubation

Row | SMILES | CypF Kd (CypF) [nM] | CypA Kd (cyclophilin A (CypA)) | CypB Kd (cyclophilin B (CypB)) | IC50 [1] [nM] | IC50 [2] [nM] | IC50 [3] [nM] | IC50 [3, 4] [nM]
1 | C/C=C/C[C@@H](C)[C@@H](O)[C@H]1C(=O)N[C@@H](CC)C(=O)N(C)[C@H](C)C(=O)N(C)[C@@H]([C@H](C)CN2CC3CCC(C2)O3)C(=O)N[C@@H](C(C)C)C(=O)N(C)[C@@H](CC(C)C)C(=O)N[C@@H](C)C(=O)N[C@H](C)C(=O)N(C)[C@@H](CC(C)C)C(=O)N(C)[C@@H](CC(C)C)C(=O)N(C)[C@@H](C(C)C)C(=O)N1C [Compound 2.5.3, 3-[D-Ala]-4-[(2S,3R)-4-(8-oxa-3-azabicyclo[3.2.1]octan-3-yl)-3-methyl-2-(methylamino)butanoyl]-cyclosporin] (cyclo([MeBmt][Abu][dNMeA][X46]V[NMeL]A[dA][NMeL][NMeL][NMeV])) | 1.4 | 2.4 | 1.8 | 1700 | 5800 | 42 | –
2 | C/C=C/C[C@@H](C)[C@@H](O)[C@H]1C(=O)N[C@@H](CC)C(=O)N(C)[C@H](C)C(=O)N(C)[C@@H]([C@H](C)CN2CCC3(CC2)OCCO3)C(=O)N[C@@H](C(C)C)C(=O)N(C)[C@@H](CC(C)C)C(=O)N[C@@H](C)C(=O)N[C@H](C)C(=O)N(C)[C@@H](CC(C)C)C(=O)N(C)[C@@H](CC(C)C)C(=O)N(C)[C@@H](C(C)C)C(=O)N1C [Compound 2.5.28, 3-[D-Ala]-4-[(2S,3R)-3-methyl-2-(methylamino)-4-(1,4-dioxa-8-azaspiro[4.5]decan-8-yl)butanoyl]-cyclosporin] (cyclo(A[dA][NMeL][NMeL][NMeV][MeBmt][Abu][dNMeA][X35]V[NMeL])) | 0.8 | 1.4 | 0.8 | 2100 | 6100 | – | 17
3 | C/C=C/C[C@@H](C)[C@@H](O)[C@H]1C(=O)N[C@@H](CC)C(=O)N(C)[C@H](C)C(=O)N(C)[C@@H]([C@H](C)COCCN2CCN(C(C)C)CC2)C(=O)N[C@@H](C(C)C)C(=O)N(C)[C@@H](CC(C)C)C(=O)N[C@@H](C)C(=O)N[C@H](C)C(=O)N(C)[C@@H](CC(C)C)C(=O)N(C)[C@@H](CC(C)C)C(=O)N(C)[C@@H](C(C)C)C(=O)N1C [Compound 2.8.5, 3-[D-Ala]-4-[(2S,3S)-4-(2-(4-isopropylpiperazin-1-yl)ethoxy)-3-methyl-2-(methylamino)butanoyl]-cyclosporin] (cyclo(A[dA][NMeL][NMeL][NMeV][MeBmt][Abu][dNMeA][X78]V[NMeL])) | 0.4 | 0.6 | 0.5 | 4400 | 8100 | – | 98.9
4 | C/C=C/C[C@@H](C)[C@@H](O)[C@H]1C(=O)N[C@@H](CC)C(=O)N(C)[C@H](C)C(=O)N(C)[C@@H]([C@H](C)CN(C)Cc2cccnc2)C(=O)N[C@@H](C(C)C)C(=O)N(C)[C@@H](CC(C)C)C(=O)N[C@@H](C)C(=O)N[C@H](C)C(=O)N(C)[C@@H](CC(C)C)C(=O)N(C)[C@@H](CC(C)C)C(=O)N(C)[C@@H](C(C)C)C(=O)N1C [Compound 2.5.25, 3-[D-Ala]-4-[(2S,3R)-3-methyl-4-(methyl(pyridin-3-ylmethyl)amino)-2-(methylamino)butanoyl]-cyclosporin] (cyclo(A[dA][NMeL][NMeL][NMeV][MeBmt][Abu][dNMeA][X53]V[NMeL])) | 1 | 1.8 | 1.0 | 1000 | 5600 | – | 22
5 | C/C=C/C[C@@H](C)[C@@H](O)[C@H]1C(=O)N[C@@H](CC)C(=O)N(C)[C@H](C)C(=O)N(C)[C@@H]([C@H](C)CCC(=O)N2CCN(C)CC2)C(=O)N[C@@H](C(C)C)C(=O)N(C)[C@@H](CC(C)C)C(=O)N[C@@H](C)C(=O)N[C@H](C)C(=O)N(C)[C@@H](CC(C)C)C(=O)N(C)[C@@H](CC(C)C)C(=O)N(C)[C@@H](C(C)C)C(=O)N1C [Compound 2.14.3, 3-[D-Ala]-4-[(2S,3R)-3-methyl-2-(methylamino)-6-(4-methylpiperazin-1-yl)-6-oxohexanoyl]-cyclosporin] (cyclo(A[dA][NMeL][NMeL][NMeV][MeBmt][Abu][dNMeA][X49]V[NMeL])) | 0.9 | 2.0 | 0.9 | 5400 | 14100 | – | 190
6 | C/C=C/C[C@@H](C)[C@@H](O)[C@H]1C(=O)N[C@@H](CC)C(=O)N(C)[C@H](C)C(=O)N(C)[C@@H]([C@H](C)CCCN2CCN(CCOC)CC2)C(=O)N[C@@H](C(C)C)C(=O)N(C)[C@@H](CC(C)C)C(=O)N[C@@H](C)C(=O)N[C@H](C)C(=O)N(C)[C@@H](CC(C)C)C(=O)N(C)[C@@H](CC(C)C)C(=O)N(C)[C@@H](C(C)C)C(=O)N1C [Compound 2.19.6, 3-[D-Ala]-4-[(2S,3R)-6-(4-(2-methoxyethyl)piperazin-1-yl)-3-methyl-2-(methylamino)hexanoyl]-cyclosporin] (cyclo(A[dA][NMeL][NMeL][NMeV][MeBmt][Abu][dNMeA][X62]V[NMeL])) | 0.5 | 0.7 | 0.7 | 2200 | 1600 | – | 110
7 | C/C=C/C[C@@H](C)[C@@H](O)[C@H]1C(=O)N[C@@H](CC)C(=O)N(C)[C@H](C)C(=O)N(C)[C@@H]([C@H](C)CCN2CCCCC2)C(=O)N[C@@H](C(C)C)C(=O)N(C)[C@@H](CC(C)C)C(=O)N[C@@H](C)C(=O)N[C@H](C)C(=O)N(C)[C@@H](CC(C)C)C(=O)N(C)[C@@H](CC(C)C)C(=O)N(C)[C@@H](C(C)C)C(=O)N1C [Compound 2.18.8, 3-[D-Ala]-4-[(2S,3R)-3-methyl-2-(methylamino)-5-(piperidin-1-yl)pentanoyl]-cyclosporin] (cyclo(A[dA][NMeL][NMeL][NMeV][MeBmt][Abu][dNMeA][X65]V[NMeL])) | 0.5 | 0.9 | 0.7 | 2300 | 1000 | – | 45
8 | C/C=C/C[C@@H](C)[C@@H](O)[C@H]1C(=O)N[C@@H](CC)C(=O)N(C)[C@H](C)C(=O)N(C)[C@@H]([C@H](C)CN2CCCOCC2)C(=O)N[C@@H](C(C)C)C(=O)N(C)[C@@H](CC(C)C)C(=O)N[C@@H](C)C(=O)N[C@H](C)C(=O)N(C)[C@@H](CC(C)C)C(=O)N(C)[C@@H](CC(C)C)C(=O)N(C)[C@@H](C(C)C)C(=O)N1C [Compound 2.5.21, 3-[D-Ala]-4-[(2S,3R)-3-methyl-2-(methylamino)-4-(1,4-oxazepan-4-yl)butanoyl]-cyclosporin] (cyclo(A[dA][NMeL][NMeL][NMeV][MeBmt][Abu][dNMeA][X30]V[NMeL])) | 0.8 | 1.9 | 0.9 | 1700 | 4500 | – | 37
9 | C/C=C/C[C@@H](C)[C@@H](O)[C@H]1C(=O)N[C@@H](CC)C(=O)N(C)[C@H](CCCO)C(=O)N(C)[C@@H]([C@H](C)CS(C)(=O)=O)C(=O)N[C@@H](C(C)C)C(=O)N(C)[C@@H](CC(C)C)C(=O)N[C@@H](C)C(=O)N[C@H](C)C(=O)N(C)[C@@H](CC(C)C)C(=O)N(C)[C@@H](CC(C)C)C(=O)N(C)[C@@H](C(C)C)C(=O)N1C (stereo in doubt) [Compound 3.4.1, 3-[(R)-5-hydroxy-2-(methylamino)pentanoyl]-4-[(2S,3S)-3-methyl-2-(methylamino)-4-(methylsulfonyl)butanoyl]-cyclosporin] | 3.8 | 7.0 | 2.8 | 2700 | 5800 | – | 4500
10 | C/C=C/C[C@@H](C)[C@@H](O)[C@H]1C(=O)N[C@@H](CC)C(=O)N(C)[C@H](C)C(=O)N(C)[C@@H]([C@H](C)CCCN2CCN(CC)CC2)C(=O)N[C@@H](C(C)C)C(=O)N(C)[C@@H](CC(C)C)C(=O)N[C@@H](C)C(=O)N[C@H](C)C(=O)N(C)[C@@H](CC(C)C)C(=O)N(C)[C@@H](CC(C)C)C(=O)N(C)[C@@H](C(C)C)C(=O)N1C (stereo in doubt) [Compound 2.19.4, 3-[D-Ala]-4-[(2S,3R)-6-(4-ethylpiperazin-1-yl)-3-methyl-2-(methylamino)hexanoyl]-cyclosporin] | 0.4 | 0.6 | 0.4 | 2600 | 8800 | – | 60
